{"source": "paper PMC8341974", "about": "(RSC Chemical Biology, 2021)", "key": {"[1]": {"molecular_target": "T1, SIRT2 (Homo sapiens, UniProt Q8IXJ6)", "T1 sequence (Q8IXJ6 50-356)": "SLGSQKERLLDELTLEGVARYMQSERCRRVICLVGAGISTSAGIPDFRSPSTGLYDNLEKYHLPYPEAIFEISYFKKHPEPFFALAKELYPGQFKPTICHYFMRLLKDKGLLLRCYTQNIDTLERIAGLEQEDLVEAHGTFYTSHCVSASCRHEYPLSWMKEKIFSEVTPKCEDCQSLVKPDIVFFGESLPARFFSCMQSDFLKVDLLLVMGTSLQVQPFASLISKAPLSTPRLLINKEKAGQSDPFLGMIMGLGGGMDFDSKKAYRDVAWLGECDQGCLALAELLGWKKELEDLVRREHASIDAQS", "test": "biochemical", "assay_type": "biochemical", "settings": "for %inhibition SIRT2, QPKKac: 100 µM inhibitor, QPKKac 50 µM, NI = no inhibition"}, "[2]": {"molecular_target": "T2, SIRT1 (Homo sapiens, UniProt Q96EB6)", "T2 sequence (Q96EB6 193-741)": "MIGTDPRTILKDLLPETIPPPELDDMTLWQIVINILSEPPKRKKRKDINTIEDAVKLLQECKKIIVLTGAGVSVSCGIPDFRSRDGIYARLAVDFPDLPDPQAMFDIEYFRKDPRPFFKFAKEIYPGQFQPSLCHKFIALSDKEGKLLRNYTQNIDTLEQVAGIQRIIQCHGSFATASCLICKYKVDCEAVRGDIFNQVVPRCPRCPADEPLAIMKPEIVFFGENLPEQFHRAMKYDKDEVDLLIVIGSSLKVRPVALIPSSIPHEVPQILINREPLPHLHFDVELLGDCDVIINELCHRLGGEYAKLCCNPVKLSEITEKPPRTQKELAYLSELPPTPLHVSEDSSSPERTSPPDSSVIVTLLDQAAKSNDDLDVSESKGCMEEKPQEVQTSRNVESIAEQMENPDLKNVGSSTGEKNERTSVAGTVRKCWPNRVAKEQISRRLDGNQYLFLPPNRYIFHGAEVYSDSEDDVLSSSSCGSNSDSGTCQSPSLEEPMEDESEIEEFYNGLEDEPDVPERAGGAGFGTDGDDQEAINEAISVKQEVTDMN", "test": "End-point SIRT1 deacetylation inhibition assay", "assay_type": "biochemical"}, "[3]": {"molecular_target": "T3, SIRT3 (Homo sapiens, UniProt Q9NTG7)", "T3 sequence (Q9NTG7 102-399)": "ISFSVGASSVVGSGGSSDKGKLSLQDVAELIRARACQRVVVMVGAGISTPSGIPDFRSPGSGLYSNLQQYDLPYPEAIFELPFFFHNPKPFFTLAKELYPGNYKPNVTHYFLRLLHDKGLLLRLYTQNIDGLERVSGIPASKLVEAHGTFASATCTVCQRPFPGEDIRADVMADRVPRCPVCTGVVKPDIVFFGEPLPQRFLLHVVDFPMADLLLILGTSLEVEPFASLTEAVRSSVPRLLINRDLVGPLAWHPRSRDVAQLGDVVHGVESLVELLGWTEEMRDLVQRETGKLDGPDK", "test": "biochemical", "assay_type": "biochemical"}, "[4]": {"molecular_target": "SIRT6 (Homo sapiens, UniProt Q8N6T7)", "sequence (Q8N6T7 whole entry)": "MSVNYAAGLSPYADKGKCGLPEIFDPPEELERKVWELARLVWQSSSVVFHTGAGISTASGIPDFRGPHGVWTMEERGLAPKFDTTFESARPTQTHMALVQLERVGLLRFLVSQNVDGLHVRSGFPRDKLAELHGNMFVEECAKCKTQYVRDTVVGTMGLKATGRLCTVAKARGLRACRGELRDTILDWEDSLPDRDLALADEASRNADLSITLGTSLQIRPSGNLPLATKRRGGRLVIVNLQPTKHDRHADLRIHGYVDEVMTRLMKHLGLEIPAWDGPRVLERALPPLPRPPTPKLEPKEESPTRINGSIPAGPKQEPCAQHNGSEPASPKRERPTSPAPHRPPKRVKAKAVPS", "test": "End-point SIRT6 inhibition assay", "assay_type": "biochemical", "settings": "10 µM inhibitor; SIRT6 600 nM; ETDKmyr 50 µM as substrate; NI = no inhibition"}, "[5]": {"test": "Serum stability in human male serum", "assay_type": "in vitro ADME", "settings": "37 °C, up to 24 h"}, "[6]": {"molecular_target": "T1, SIRT2", "test": "Continuous trypsin-coupled SIRT2 inhibition assay", "assay_type": "biochemical", "settings": "from dependence of kobs on inhibitor concentration"}, "[7]": {"test_system": "acetylated α-tubulin in MCF-7 cells", "test": "Immunofluorescence of acetylated α-tubulin in MCF-7 cells", "assay_type": "cell-based, human", "settings": "MCF-7, 6 h; 26 5 μM, 26-D 25 μM, TSA 5 μM"}}, "data": [{"molecule": "CCCCCCCCCCCCCC(=O)NNCCC[C@H](NC(=O)OCc1ccccc1)C(=O)N[C@@H](Cc1c[nH]c2ccccc12)C(=O)NC(C)C", "note": "[Compound 4]", "values": [{"measurement": "%inhibition SIRT2, QPKKac", "setting": "[1]", "value": "only limited inhibition"}]}, {"molecule": "CCCCCCCCCCCCNC(=O)CCCCC[C@H](NC(=O)OCc1ccccc1)C(=O)N[C@@H](Cc1c[nH]c2ccccc12)C(=O)NC(C)C", "note": "[Compound 5]", "values": [{"measurement": "%inhibition SIRT2, QPKKac", "setting": "[1]", "value": "only limited inhibition"}]}, {"molecule": "CCCCCCCCCCCCNC(=S)NCCCC[C@H](NS(C)(=O)=O)C(=O)N[C@@H](C)C(=O)N[C@@H](CCCNC(=N)N)C(N)=O", "note": "[Compound 25]", "values": [{"measurement": "IC50", "setting": "[2]", "value": "370 ± 70", "unit": "nM"}, {"measurement": "IC50", "setting": "[3]", "value": "1900 ± 300", "unit": "nM"}, {"measurement": "IC50", "setting": "[1]; IC50 SIRT2, QPKKac, given as class word, QPKKac 50 μM, NAD+ 500 μM, SIRT2 100 nM", "value": "< 100", "unit": "nM"}, {"measurement": "%-inhibition SIRT6", "setting": "[4]", "value": "did not inhibit"}, {"measurement": "degradation in human serum (in words)", "setting": "[5]", "value": "almost fully degraded in less than two hours"}, {"measurement": "mechanism of slow-binding inhibition", "setting": "[6]", "value": "mechanism B"}]}, {"molecule": "CC(/C=C/C(=O)NO)=C\\[C@@H](C)C(=O)c1ccc(N(C)C)cc1", "note": "[TSA, Trichostatin A]", "values": [{"measurement": "acetylated α-tubulin level by immunofluorescence (in words)", "setting": "[7]", "value": "hyperacetylation of α-tubulin throughout the entire cell"}]}, {"molecule": "CN(C)CCCCC(=O)Nc1ccc(NC(=S)NC(=O)c2ccc(C(C)(C)C)cc2)cc1", "note": "[Tenovin-6, reference compound]", "values": [{"measurement": "%inhibition SIRT3, QPKKac", "setting": "[3]; 100 µM inhibitor, QPKKac 50 µM, NI = no inhibition", "value": "<50% [100 μM]"}, {"measurement": "degradation in human serum (in words)", "setting": "[5]", "value": "rapidly degraded"}]}]}
